Measured values from ChEMBL document CHEMBL1144334, “Synthesis and structure-activity relationships of isoxazole carboxamides as growth hormone secretagogue receptor antagonists” (Bioorg Med Chem Lett, 2005).

Assays:
[1] = molecular target: T1, Growth hormone secretagogue receptor type 1 (Homo sapiens, UniProt Q92847); assay: Inhibition of binding to human growth hormone secretagogue receptor
[2] = molecular target: T1, Growth hormone secretagogue receptor type 1; assay: Inhibition of ghrelin-induced increase of intracellular [Ca2+] in CHO K cell FLIPR assay; format: functional, cell-based
Rattus norvegicus [3] = assay: Oral bioavailability in rat; format: functional, organism-based
Rattus norvegicus [4] = organism: Rattus norvegicus; assay: Rate of metabolism measured in rat liver microsomes for 30 min

T1 sequence (Q92847 whole entry): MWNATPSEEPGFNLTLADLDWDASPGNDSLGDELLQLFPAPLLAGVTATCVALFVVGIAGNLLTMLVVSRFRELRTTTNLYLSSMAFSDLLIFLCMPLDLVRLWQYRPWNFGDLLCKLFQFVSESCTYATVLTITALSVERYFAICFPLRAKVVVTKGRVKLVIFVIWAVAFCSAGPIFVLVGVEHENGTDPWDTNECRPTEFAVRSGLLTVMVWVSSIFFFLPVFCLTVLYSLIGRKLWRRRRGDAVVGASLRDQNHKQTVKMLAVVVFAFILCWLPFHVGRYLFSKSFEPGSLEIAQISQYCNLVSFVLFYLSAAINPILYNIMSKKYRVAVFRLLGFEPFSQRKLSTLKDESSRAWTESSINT

IC50 [1] | IC50 [2] | Structure (SMILES) | bioavailability (Rattus norvegicus [3]) | Rate of metabolism (Rattus norvegicus [4])
9 nM | 10 nM | CCN(CC)c1ccc(NC(=O)c2c(-c3c(Cl)cccc3Cl)noc2CCC2OCCCO2)c(C)c1 |  | 
7500 nM | 7400 nM | O=C(Nc1ccccc1C(=O)N1CCCCC1)c1c(-c2c(Cl)cccc2Cl)noc1CCC1OCCCO1 |  | 
4100 nM | > 10000 nM | CCN(CC)c1ccc(NC(=O)c2c(-c3c(Cl)cccc3Cl)noc2C)c(C(F)(F)F)c1 |  | 
1200 nM | 10500 nM | Cc1onc(-c2c(Cl)cccc2Cl)c1C(=O)Nc1ccccc1C(=O)NCc1ccccc1 |  | 
1900 nM | 2500 nM | CCN(CC)C(=O)c1ccccc1NC(=O)c1c(-c2c(Cl)cccc2Cl)noc1C |  | 
> 10000 nM |  | CCNc1ccc(NC(=O)c2c(-c3c(Cl)cccc3Cl)noc2C)cc1 |  | 
37 nM | 39 nM | CCN(CC)c1ccc(NC(=O)c2c(-c3c(Cl)cccc3Cl)noc2C)c(C)c1 | 1% | 
9000 nM | 4500 nM | CCN(CC)c1ccc(NC(=O)c2c(-c3c(Cl)cccc3Cl)noc2C)c(C#N)c1 |  | 
 | 14 nM | CCN(CC)c1ccc(NC(=O)c2c(-c3c(Cl)cccc3Cl)noc2CCC2OCCCO2)cc1 |  | 
> 10000 nM |  | CCN(CC)c1ccc(NC(=O)c2c(-c3c(Cl)cccc3Cl)noc2C)cc1Cl |  | 
18500 nM |  | CCN(CC)c1ccc(NC(=O)c2c(-c3cccc(Cl)c3)noc2C)cc1 |  | 
 |  | CCN(CC)c1ccc(NC(=O)c2c(-c3c(Cl)cccc3Cl)noc2C)cc1 | 4% | 800 pM/mg/min
9200 nM | 3100 nM | CCN(CCO)c1ccc(NC(=O)c2c(-c3c(Cl)cccc3Cl)noc2C)cc1 |  | 
340 nM | 280 nM | CCN(CC)c1ccc(NC(=O)c2c(-c3ccccc3Br)noc2C)cc1 |  | 
410 nM | 510 nM | CCCN(CC)c1ccc(NC(=O)c2c(-c3c(Cl)cccc3Cl)noc2C)cc1 |  | 
> 10000 nM |  | Cc1onc(-c2c(Cl)cccc2Cl)c1C(=O)Nc1ccc(N2CCCCC2)cc1 |  | 
> 10000 nM |  | CCN(CC)Cc1ccc(NC(=O)c2c(-c3c(Cl)cccc3Cl)noc2C)cc1 |  | 

IC50 [1] | IC50 [2] | Structure (SMILES) | bioavailability (Rattus norvegicus [3]) | Rate of metabolism (Rattus norvegicus [4])
5500 nM | 4700 nM | CCN(C)c1ccc(NC(=O)c2c(-c3c(Cl)cccc3Cl)noc2C)cc1 |  | 
860 nM | 510 nM | Cc1onc(-c2c(Cl)cccc2Cl)c1C(=O)Nc1ccccc1C(=O)N1CCCCCC1 |  | 
2200 nM | 2300 nM | Cc1onc(-c2c(Cl)cccc2Cl)c1C(=O)Nc1ccccc1C(=O)N1CCCCC1 |  | 
600 nM | 2900 nM | CCN(CC)c1ccc(NC(=O)c2c(-c3c(Cl)cccc3Cl)noc2C)c(OC)c1 |  | 
8200 nM | 7600 nM | CCN(CC)c1ccc(NC(=O)c2c(-c3ccccc3)noc2C)cc1 |  | 
350 nM | 4900 nM | Cc1onc(-c2c(Cl)cccc2Cl)c1C(=O)Nc1ccccc1C(=O)NCc1ccc2c(c1)OCO2 |  | 
> 10000 nM |  | CCN(C(C)=O)c1ccc(NC(=O)c2c(-c3c(Cl)cccc3Cl)noc2C)cc1 |  | 
7100 nM | 6000 nM | CCN(CC)c1ccc(NC(=O)c2c(-c3ccc(Cl)cc3)noc2C)cc1 |  | 
980 nM | 1700 nM | Cc1onc(-c2c(Cl)cccc2Cl)c1C(=O)Nc1ccccc1CC1c2ccccc2CCN1C (centres undefined) |  | 
> 100 nM | > 10000 nM | CCN(CC)c1ccc(NC(=O)c2c(-c3c(Cl)cccc3Cl)noc2C)cc1C |  | 
370 nM | 41 nM | CCc1cc(N(CC)CC)ccc1NC(=O)c1c(-c2c(Cl)cccc2Cl)noc1C |  | 
690 nM | 250 nM | CCN(CC)c1ccc(NC(=O)c2c(-c3ccccc3Cl)noc2C)cc1 |  | 
550 nM | 620 nM | CCN(CC)c1ccc(NC(=O)c2c(-c3ccccc3[N+](=O)[O-])noc2C)cc1 |  | 
> 10000 nM |  | CCC(CC)c1ccc(NC(=O)c2c(-c3c(Cl)cccc3Cl)noc2C)cc1 |  | 
4000 nM | 6800 nM | CCN(CC)c1ccc(NC(=O)c2c(-c3ccccc3OC)noc2C)cc1 |  | 
1300 nM | 6300 nM | CCN(CC)c1ccc(NC(=O)c2c(-c3ccccc3-c3ccccc3)noc2C)cc1 |  | 
